Reference: patent US11447525B2 (NIIGATA UNIVERSITY, priority 2018, dated 2022)
Non-standard residues stand in square brackets, D forms with d. Residues, ends and D or L forms follow the SMILES beside them. No end group written: not given here. NMeR = CN[C@@H](CCCNC(=N)N)C(=O)O

Assay: Degradation test by human blood plasma, MALDI-TOFMS analysis
Assay type: in vitro ADME
Conditions: for remaining at 2 h / remaining at 5 min / remaining at 10 min / remaining at 20 min / remaining at 0.5 h / remaining at 1 h: read-out: degradation resistance (proportion of the peptide retained without degradation)
Experimental: Specifically, a peptide composed of the amino acid sequence represented by SEQ ID NO: 1 (hereafter sometimes referred to as “PCPP11”) was added to human blood plasma having a concentration of 50% by mass, the mixture was sampled immediately after starting the degradation test (after 0 minutes), and then after 5 minutes, after 10 minutes, after 20 minutes, after 30 minutes, after 60 minutes and after 120 minutes, and the samples were analyzed by MALDI-TOFMS (Matrix Assisted Laser Desorption/Ionization-Time Of Flight Mass Spectrometry). In Table 2, “UK” is an abbreviation for “unknown”. Further, the No. shown for each peptide in Table 2 corresponds with the numerical value recorded on the peaks of the graphs shown in FIG. 1.
Each of the peptides described above was added to human blood plasma having a concentration of 50% by mass, the resulting mixture was sampled immediately after starting the degradation test (after 0 minutes), and then after 5 minutes, after 10 minutes, after 20 minutes, after 30 minutes, after 60 minutes and after 120 minutes, and the samples were analyzed by MALDI-TOFMS. The results are shown in FIGS. 2 to 6 and Tables 4 to 6 shown below. Furthermore, the data for the degradation test by human blood plasma using PCPP11 from Reference Example 1 and the degradation tests by human blood plasma using each of the above peptides are collated in FIG. 7 and Table 7. The SEQ ID NO listed for the FAM-labeled peptide represents the SEQ ID NO of the peptide portion. Further, the No. shown for each peptide in Tables 4 to 6 corresponds with the numerical value recorded on the peaks of the graphs shown in FIGS. 2 to 6. In each table, in those cases where the numerical values are shown separated into an upper row and a lower row, the upper row value indicates the proportion (%) of peak area for two or more peptides relative to the total peak area in the MALDI-TOFMS analysis. On the other hand, the lower row value indicates the proportion (%) of each peptide when the peak area for the two or more peptides is deemed to be 100%. Moreover, for example, for the peptide No. 9 shown in Table 4, the left-side “70.0%” indicates the proportion (%) of the peptide No. 9 when the total peak area for the peptides No. 9 to 11 is deemed to be 100%, whereas the right-side “65%” indicates the proportion (%) of the peptide No. 9 relative to the total peak area in the MALDI-TOFMS analysis. This system is also used in the following tables.

[1] = 50% by mass human blood plasma, 120 min
[2] = 50% by mass human blood plasma, 5 min
[3] = 50% by mass human blood plasma, Start
[4] = 50% by mass human blood plasma, 10 min
[5] = 50% by mass human blood plasma, 20 min
[6] = 50% by mass human blood plasma, 30 min
[7] = 50% by mass human blood plasma, 60 min
[8] = LL peptide added to 50% by mass human blood plasma, 20 min
[9] = LL peptide added to 50% by mass human blood plasma, 60 min
[10] = LL peptide added to 50% by mass human blood plasma, 120 min

degradation resistance compared with the stand-alone PCPP11 and the FAM-PCPP11 (50% by mass human blood plasma) | remaining at 2 h [1] [%] | remaining at 5 min [2] [%] | degradation resistance (proportion of the peptide retained without degradation) [3] [%] | remaining at 10 min [4] [%] | remaining at 20 min [5] [%] | remaining at 0.5 h [6] [%] | remaining at 1 h [7] [%] | Compound | further results
superior degradation resistance |  |  |  |  |  |  |  | RRPTTWHKPGRRPTTWHKP [No. 9] | 
 | 100 |  |  |  |  |  |  | RRPTTWHKPGRRPTTWHKPGRRPTTWHKP [Peptide 12] | 
 |  | 93 | 100 |  |  |  |  | RRPTTWHKP [compound 1] | 
 |  |  |  |  |  |  |  | RRPTTWHKP [No. 1, reference compound] | persistence time (the time of stable existence) (50% by mass human blood plasma): less than 20 minutes
 | 100 | 100 | 100 | 100 | 100 | 100 | 100 | C[C@@H](O)[C@H](NC(=O)[C@@H](NC(=O)[C@@H]1CCCN1C(=O)[C@H](CCCNC(=N)N)NC(=O)[C@H](CCCNC(=N)N)NC(=O)CNC(=O)[C@@H]1CCCN1C(=O)[C@H](CCCCN)NC(=O)[C@H](Cc1c[nH]cn1)NC(=O)[C@H](Cc1c[nH]c2ccccc12)NC(=O)[C@@H](NC(=O)[C@@H](NC(=O)[C@@H]1CCCN1C(=O)[C@H](CCCNC(=N)N)N(C)C(=O)[C@@H](N)CCCNC(=N)N)[C@@H](C)O)[C@@H](C)O)[C@@H](C)O)C(=O)N[C@@H](Cc1c[nH]c2ccccc12)C(=O)N[C@@H](Cc1c[nH]cn1)C(=O)N[C@@H](CCCCN)C(=O)N1CCC[C@H]1C(=O)O [compound 18] (H-R[NMeR]PTTWHKPGRRPTTWHKP-OH; N-terminus and C-terminus assumed) | 
 |  | 100 | 100 | 100 | 100 | 100 | 100 | RRPTTWHKPGRRPTTWHKPGRRPTTWHKP [compound 12] | 
 | 32 | 100 | 100 | 100 | 94 | 84 | 58 | C[C@H](O)[C@@H](NC(=O)[C@@H](Cc1c[nH]c2ccccc12)NC(=O)[C@@H](Cc1c[nH]cn1)NC(=O)[C@@H](CCCCN)NC(=O)[C@H]1CCCN1C(=O)CNC(=O)[C@@H]1CCCN1C(=O)[C@H](CCCCN)NC(=O)[C@H](Cc1c[nH]cn1)NC(=O)[C@H](Cc1c[nH]c2ccccc12)NC(=O)[C@@H](NC(=O)[C@@H](NC(=O)[C@@H]1CCCN1C(=O)[C@H](CCCNC(=N)N)NC(=O)[C@@H](N)CCCNC(=N)N)[C@@H](C)O)[C@@H](C)O)C(=O)N[C@@H](C(=O)N1CCC[C@@H]1C(=O)N[C@H](CCCNC(=N)N)C(=O)N[C@H](CCCNC(=N)N)C(=O)O)[C@H](C)O [compound 15] (H-RRPTTWHKPG[dP][dK][dH][dW][dT][dT][dP][dR][dR]-OH; N-terminus and C-terminus assumed) | proportion of each peptide when the peak area for the two or more peptides is deemed to be 100% (Ld peptide added to 50% by mass human blood plasma, 5 min): (89.0%); proportion of each peptide when the peak area for the two or more peptides is deemed to be 100% (Ld peptide added to 50% by mass human blood plasma, 10 min): (82.2%); proportion of each peptide when the peak area for the two or more peptides is deemed to be 100% (Ld peptide added to 50% by mass human blood plasma, 20 min): (71.9%); proportion of each peptide when the peak area for the two or more peptides is deemed to be 100% (Ld peptide added to 50% by mass human blood plasma, 30 min): (62.3%); proportion of each peptide when the peak area for the two or more peptides is deemed to be 100% (Ld peptide added to 50% by mass human blood plasma, 60 min): (43.0%); proportion of each peptide when the peak area for the two or more peptides is deemed to be 100% (Ld peptide added to 50% by mass human blood plasma, 120 min): (24.6%); proportion of each peptide when the peak area for the two or more peptides is deemed to be 100% (Ld peptide added to 50% by mass human blood plasma, Start): (96.9%)
superior degradation resistance |  |  |  |  |  |  |  | C[C@H](O)[C@@H](NC(=O)[C@@H](Cc1c[nH]c2ccccc12)NC(=O)[C@@H](Cc1c[nH]cn1)NC(=O)[C@@H](CCCCN)NC(=O)[C@H]1CCCN1C(=O)CNC(=O)[C@@H]1CCCN1C(=O)[C@H](CCCCN)NC(=O)[C@H](Cc1c[nH]cn1)NC(=O)[C@H](Cc1c[nH]c2ccccc12)NC(=O)[C@@H](NC(=O)[C@@H](NC(=O)[C@@H]1CCCN1C(=O)[C@H](CCCNC(=N)N)NC(=O)[C@@H](N)CCCNC(=N)N)[C@@H](C)O)[C@@H](C)O)C(=O)N[C@@H](C(=O)N1CCC[C@@H]1C(=O)N[C@H](CCCNC(=N)N)C(=O)N[C@H](CCCNC(=N)N)C(=O)O)[C@H](C)O [No. 15] (H-RRPTTWHKPG[dP][dK][dH][dW][dT][dT][dP][dR][dR]-OH; N-terminus and C-terminus assumed) | 
superior degradation resistance |  |  |  |  |  |  |  | RRPTTWHKPGRRPTTWHKPGRRPTTWHKP [No. 12] | degradation products observed (50% by mass human blood plasma, within 120 minutes of starting the test): no degradation products were observed
superior degradation resistance |  |  |  |  |  |  |  | C[C@@H](O)[C@H](NC(=O)[C@@H](NC(=O)[C@@H]1CCCN1C(=O)[C@H](CCCNC(=N)N)NC(=O)[C@H](CCCNC(=N)N)NC(=O)CNC(=O)[C@@H]1CCCN1C(=O)[C@H](CCCCN)NC(=O)[C@H](Cc1c[nH]cn1)NC(=O)[C@H](Cc1c[nH]c2ccccc12)NC(=O)[C@@H](NC(=O)[C@@H](NC(=O)[C@@H]1CCCN1C(=O)[C@H](CCCNC(=N)N)N(C)C(=O)[C@@H](N)CCCNC(=N)N)[C@@H](C)O)[C@@H](C)O)[C@@H](C)O)C(=O)N[C@@H](Cc1c[nH]c2ccccc12)C(=O)N[C@@H](Cc1c[nH]cn1)C(=O)N[C@@H](CCCCN)C(=O)N1CCC[C@H]1C(=O)O [No. 18] (H-R[NMeR]PTTWHKPGRRPTTWHKP-OH; N-terminus and C-terminus assumed) | 
 | 65 |  | 100 | 84 | 89 | 91 | 79 | RRPTTWHKPGRRPTTWHKP [compound 9] | degradation resistance (proportion of the peptide retained without degradation) [2]: 100%; proportion of peak area relative to the total peak area in the MALDI-TOFMS analysis (LL peptide added to 50% by mass human blood plasma, 5 min): 100%; proportion of each peptide when the peak area for the two or more peptides is deemed to be 100% [8]: 92.1%; proportion of peak area relative to the total peak area in the MALDI-TOFMS analysis [8]: 89%; proportion of each peptide when the peak area for the two or more peptides is deemed to be 100% (LL peptide added to 50% by mass human blood plasma, 30 min): (92.1%); proportion of each peptide when the peak area for the two or more peptides is deemed to be 100% [9]: 82.1%; proportion of peak area relative to the total peak area in the MALDI-TOFMS analysis [9]: 79%; proportion of each peptide when the peak area for the two or more peptides is deemed to be 100% [10]: 70.0%; proportion of peak area relative to the total peak area in the MALDI-TOFMS analysis [10]: 65%; proportion of peak area relative to the total peak area in the MALDI-TOFMS analysis (LL peptide added to 50% by mass human blood plasma, Start): 100%
 |  |  |  | 67 |  |  |  | RRPTTWHKP [Peptide 1] | 

Compound | degradation resistance compared with the stand-alone PCPP11 and the FAM-PCPP11 (50% by mass human blood plasma) | remaining at 2 h [1] [%] | remaining at 5 min [2] [%] | degradation resistance (proportion of the peptide retained without degradation) [3] [%] | remaining at 10 min [4] [%] | remaining at 20 min [5] [%] | remaining at 0.5 h [6] [%] | remaining at 1 h [7] [%] | further results
C[C@H](O)[C@@H](NC(=O)[C@@H](Cc1c[nH]c2ccccc12)NC(=O)[C@@H](Cc1c[nH]cn1)NC(=O)[C@@H](CCCCN)NC(=O)[C@H]1CCCN1C(=O)CNC(=O)[C@@H]1CCCN1C(=O)[C@H](CCCCN)NC(=O)[C@H](Cc1c[nH]cn1)NC(=O)[C@H](Cc1c[nH]c2ccccc12)NC(=O)[C@@H](NC(=O)[C@@H](NC(=O)[C@@H]1CCCN1C(=O)[C@H](CCCNC(=N)N)N(C)C(=O)[C@@H](N)CCCNC(=N)N)[C@@H](C)O)[C@@H](C)O)C(=O)N[C@@H](C(=O)N1CCC[C@@H]1C(=O)N[C@H](CCCNC(=N)N)C(=O)N[C@H](CCCNC(=N)N)C(=O)O)[C@H](C)O [compound 19] (H-R[NMeR]PTTWHKPG[dP][dK][dH][dW][dT][dT][dP][dR][dR]-OH; N-terminus and C-terminus assumed) |  | 100 | 100 | 100 | 100 | 100 | 100 | 100 | 
